Measurements reported in ChEMBL document CHEMBL1156253 (Eur J Med Chem, 2010).

Target: T1, Peroxisome proliferator-activated receptor gamma (Homo sapiens, UniProt P37231)
T1 sequence (P37231 whole entry): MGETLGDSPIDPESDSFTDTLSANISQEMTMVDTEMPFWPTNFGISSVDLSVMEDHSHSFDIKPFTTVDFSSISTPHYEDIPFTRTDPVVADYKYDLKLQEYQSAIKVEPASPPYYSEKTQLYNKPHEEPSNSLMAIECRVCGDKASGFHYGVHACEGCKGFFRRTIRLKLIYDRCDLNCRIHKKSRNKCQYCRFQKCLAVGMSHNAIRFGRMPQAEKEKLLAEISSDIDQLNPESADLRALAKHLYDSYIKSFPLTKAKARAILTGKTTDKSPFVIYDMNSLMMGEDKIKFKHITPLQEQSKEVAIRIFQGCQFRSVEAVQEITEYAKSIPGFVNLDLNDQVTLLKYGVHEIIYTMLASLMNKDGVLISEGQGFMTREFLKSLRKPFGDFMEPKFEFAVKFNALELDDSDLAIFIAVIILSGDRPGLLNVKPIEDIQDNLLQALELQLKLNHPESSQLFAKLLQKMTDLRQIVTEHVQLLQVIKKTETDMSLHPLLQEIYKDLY
Experiment: Agonist activity at N-terminal His-tagged human PPARgamma ligand binding domain by fluorescence polarization assay

| Compound | IC50 [nM] |
| --- | --- |
| Cc1ccc(COc2ccccc2/C=C2/SC(=S)N(CCC(=O)O)C2=O)cc1 | 1320 |
| O=C(O)CCN1C(=O)/C(=C\c2ccc(Cl)cc2Cl)SC1=S | 876 |
